Results on one compound are retold here after US7060733B2, “Methods for treating pancreatitis with curcumin compounds and inhibitors of reactive oxygen species” (The Regents of the University of California, priority 2002, dated 2006).

One data set relates to pancreatic acinar cells. Nature of the data set: LDH release from pancreatic acinar cells. Format: cell-based, rat. Particulars: 100 μM curcumin, control acinar cells or cells stimulated with 100 nM CCK-8.
Data set [1] has as its system NF-κB. Nature of the data set: Curcumin and N-acetylcysteine alone and in combination, NF-κB activation in CCK-stimulated acinar cells. The format is cell-based, rat. Particulars: curcumin 50 μM alone, 0.1 μM CCK.
Protocol: To measure the effects of curcumin compounds and ROS inhibitors, EMSAs and nuclear protein extractions were conducted as provided above. […] EMSAs for NF-κB activation were performed on nuclear proteins extracted from each sample.
The test system of data set [2] is AP-1. Put plainly: CCK-induced AP-1 activation in isolated pancreatic acinar cells (EMSA). The format is cell-based, rat. A general note: Mobility shift assays separate free from complexed probe on a gel.
Protocol: To confirm that the effects of curcumin occur in the pancreatic acinar cell, the effects of curcumin on the activation of NF-κB and AP-1 in vitro in CCK-stimulated pancreatic acini. Pancreatic acini were prepared from rat pancreas using the collagenase digestion method as described by Pandol S J, et al. (1982) J. Biol. Chem. 257:12024–12029, which is herein incorporated by reference, and then incubated at 37° C. in 199 medium (GIBCO, Rockville, Md.) known in the art. […] EMSAs for NF-κB and AP-1 were performed on nuclear proteins extracted from each sample as provided above. Nuclear protein extracts were prepared by methods known in the art. […] Briefly, samples of pancreatic tissue or isolated acini were rinsed in ice-cold PBS and homogenized in hypotonic Buffer A (20 mM β-glycerophosphate, 10 mM HEPES, pH 7.6, 1.5 mM MgCl2, 10 mM KCl, 10 mM Na2MoO4, 0.1 mM Na3VO4, 1 mM dithiothreitol (DTT), 1 mM phenylmethylsulfonyl fluoride (PMSF), 5 μg/ml each of protease inhibitors pepstatin, leupeptin, chymostatin, antipain and aprotinin). After incubating on ice for about 20 to about 25 minutes, the nonionic detergent Igepal CA-630 (Sigma, St. Louis, Mo.) was added to a final concentration of 0.3 to 0.4% (v/v), followed by an additional incubation on ice for about 1 to about 2 minutes. The crude nuclear pellet was collected by microcentrifugation for 30 seconds. The supernatant (cytosolic protein) was removed, and the nuclear pellet was resuspended in the high-salt buffer C (25% glycerol, 20 mM β-glycerophosphate, 10 mM HEPES, 1.5 mM MgCl2, 420 mM NaCl, 0.2 mM EDTA, 10 mM Na2MoO4, 0.1 mM Na3VO4, 1 mM DTT, 1 mM PMSF, 5 μg/ml each of protease inhibitors pepstatin, leupeptin, chymostatin, antipain and aprotinin. After rotating at 4° C. for up to 1 hour, nuclear membranes were pelleted by microcentrifugation for 10 minutes, and the clear supernatant (nuclear extract) was aliquoted and stored at −80° C. Protein concentration in the nuclear extract was determined by the Bio-Rad protein assay (Bio-Rad Laboratories, Hercules, Calif.).
The subject of data set [3] is NF-κB. Nature of the data set: CCK-induced NF-κB activation in isolated pancreatic acinar cells (EMSA). The format is cell-based, rat. The protocol: To confirm that the effects of curcumin occur in the pancreatic acinar cell, the effects of curcumin on the activation of NF-κB and AP-1 in vitro in CCK-stimulated pancreatic acini. Pancreatic acini were prepared from rat pancreas using the collagenase digestion method as described by Pandol S J, et al. (1982) J. Biol. Chem. 257:12024–12029, which is herein incorporated by reference, and then incubated at 37° C. in 199 medium (GIBCO, Rockville, Md.) known in the art. See Blinman T A, et al. (2000); Gukovskaya A S, et al. (1997); Gulkovsky I, et al. (1998); and Zaninovic V, et al. (2000).
EMSAs for NF-κB and AP-1 were performed on nuclear proteins extracted from each sample as provided above.
Nuclear protein extracts were prepared by methods known in the art. See Blinman T A, et al. (2000); Gukovskaya A S, et al. (1997); Gukovsky I, et al. (1998); Pandol S J, et al. (1999); Vaquero E, et al. (2001); and Zaninovic V, et al. (2000). Briefly, samples of pancreatic tissue or isolated acini were rinsed in ice-cold PBS and homogenized in hypotonic Buffer A (20 mM β-glycerophosphate, 10 mM HEPES, pH 7.6, 1.5 mM MgCl2, 10 mM KCl, 10 mM Na2MoO4, 0.1 mM Na3VO4, 1 mM dithiothreitol (DTT), 1 mM phenylmethylsulfonyl fluoride (PMSF), 5 μg/ml each of protease inhibitors pepstatin, leupeptin, chymostatin, antipain and aprotinin). […]

The nature of data set [4]: Solubility of curcumin compounds. Format: physicochemical. Particulars: dissolved in DMSO, veins of the rat.
Data set [5] relates to IL-6, TNF-α, KC and iNOS mRNA. Nature of the data set: RT-PCR for pancreatic mRNA expression of inflammatory molecules. The format is in vivo. The following applies: rat. The protocol:
To determine whether the effects of curcumin on NF-κB and AP-1 activation translated into changes in the expression of inflammatory molecules, the effect of curcumin on pancreatic mRNA expression of several cytokines and other inflammatory molecules were measured by methods known in the art. See Blinman T A, et al. (2000); Gukovskaya A S, et al. (1999); Gukovsky I, et al. (1998); Pandol S J, et al. (1999); Vaquero E, et al. (2001); and Zaninovic V, et al. (2000). Briefly, total RNA was obtained from pancreatic tissue with TRI reagent (Molecular Research Center, Cincinnati, Ohio) and its quality was verified by ethidium bromide staining of rRNA bands on a denaturing agarose gel. RNA was reverse-transcribed with the SuperScript II preamplification kit (GIBCO-BRL, Rockville, Md.) and subjected to PCR with the rat gene specific, intron-spanning primers set forth in Target sequences were amplified at 56° C. using the same amount of cDNA for all primer sets. The RT-PCR products were all of expected size, and their identity was confirmed by direct sequencing. Negative controls were performed by omitting the RT step or cDNA template from the PCR amplification. The cycle number was adjusted between 22 (for the housekeeping ARP gene) and 36 cycles (for iNOS) in order to yield visible products within the linear amplification range. […]

Another data set deals with p38 MAP kinase (Homo sapiens, UniProt Q16539). The following applies: various cell types and tissues; cited from earlier work.
p38 MAP kinase, sequence (Q16539 whole entry): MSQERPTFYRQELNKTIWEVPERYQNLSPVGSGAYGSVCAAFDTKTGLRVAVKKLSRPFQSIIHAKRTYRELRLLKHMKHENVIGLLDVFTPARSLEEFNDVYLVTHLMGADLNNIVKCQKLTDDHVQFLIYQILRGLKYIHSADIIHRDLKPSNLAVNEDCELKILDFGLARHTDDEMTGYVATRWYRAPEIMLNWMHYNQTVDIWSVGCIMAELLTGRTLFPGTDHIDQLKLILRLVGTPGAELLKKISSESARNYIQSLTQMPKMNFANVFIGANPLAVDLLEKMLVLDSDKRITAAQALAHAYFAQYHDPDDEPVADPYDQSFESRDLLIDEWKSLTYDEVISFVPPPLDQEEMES
For data set [6], the system named is AP-1. Nature of the data set: EMSA for AP-1 on nuclear extracts from pancreatic tissue. The format is in vivo. Particulars: rat.
Protocol: Specifically, aliquots of nuclear extracts with equal amounts of protein (about 2 to about 10 mg) were mixed in 20 μl reactions with a buffer containing 10 mM HEPES (pH 7.8), 50 mM KCl, 0.1 mM EDTA, 1 mM DTT, 10% (vol/vol) glycerol, and 3 μg of poly(dI-dC). Binding reactions were started by the addition of c. 60,000 cpm of ^32P-labeled DNA probe and allowed to proceed for about 20 to about 25 minutes at room temperature. The oligonucleotide probe for NF-κB:
5′-[sequence] (SEQ ID NO: 2), containing phorbol ester responsive element (TRE, underlined), were annealed with their complementary strands and end-labeled using Klenow DNA polymerase I (Stratagene, La Jolla, Calif.).
The samples were electrophoresed at room temperature in 0.5×TBE buffer (1× TBE: 89 mM Tris base, 89 mM boric acid, 2 mM EDTA) on a non-denaturing 4.5% polyacrylamide gel at 200 V. The gels were dried and directly analyzed in the PhosphorImager (Molecular Dynamics, Sunnyvale, Calif.).
Nuclear protein extracts were prepared by methods known in the art. […] Briefly, samples of pancreatic tissue or isolated acini were rinsed in ice-cold PBS and homogenized in hypotonic Buffer A (20 mM β-glycerophosphate, 10 mM HEPES, pH 7.6, 1.5 mM MgCl2, 10 mM KCl, 10 mM Na2MoO4, 0.1 mM Na3VO4, 1 mM dithiothreitol (DTT), 1 mM phenylmethylsulfonyl fluoride (PMSF), 5 μg/ml each of protease inhibitors pepstatin, leupeptin, chymostatin, antipain and aprotinin). After incubating on ice for about 20 to about 25 minutes, the nonionic detergent Igepal CA-630 (Sigma, St. Louis, Mo.) was added to a final concentration of 0.3 to 0.4% (v/v), followed by an additional incubation on ice for about 1 to about 2 minutes. The crude nuclear pellet was collected by microcentrifugation for 30 seconds. The supernatant (cytosolic protein) was removed, and the nuclear pellet was resuspended in the high-salt buffer C (25% glycerol, 20 mM β-glycerophosphate, 10 mM HEPES, 1.5 mM MgCl2, 420 mM NaCl, 0.2 mM EDTA, 10 mM Na2MoO4, 0.1 mM Na3VO4, 1 mM DTT, 1 mM PMSF, 5 μg/ml each of protease inhibitors pepstatin, leupeptin, chymostatin, antipain and aprotinin. After rotating at 4° C. for up to 1 hour, nuclear membranes were pelleted by microcentrifugation for 10 minutes, and the clear supernatant (nuclear extract) was aliquoted and stored at −80° C. Protein concentration in the nuclear extract was determined by the Bio-Rad protein assay (Bio-Rad Laboratories, Hercules, Calif.).
[7] abbreviates: 1 h with compound, then 0.1 μM CCK 30 min.

“Also recorded” adds a separate entry of the source.

On to `COc1cc(/C=C/C(=O)CC(=O)/C=C/c2ccc(O)c(OC)c2)ccc1O` [curcumin], for which the LDH release entry in the data set with pancreatic acinar cells is listed as “did not cause additional LDH release”. In addition, the “inhibition of NF-κB activation in CCK-stimulated acinar cells” value with NF-κB [1] is given as “very little inhibition”. The “CCK-induced activation of AP-1 in isolated acinar cells” value in the data set on AP-1 [2] (setting [7]) was “inhibits; also recorded: abolished; also recorded: blocked; also recorded: attenuates”. The “basal AP-1 binding activity in acinar cells” value in the data set with AP-1 [2] (isolated acinar cells without CCK) is given as “inhibited”. Further, in the data set with NF-κB [3] (setting [7]), the “CCK-induced activation of NF-κB in isolated acinar cells” value was “inhibits; also recorded: abolished; also recorded: blocked; also recorded: attenuates; also recorded: not highly potent”. In addition, the “basal NF-κB binding activity in acinar cells” value with NF-κB [3] (control cells, incubated without CCK) is “inhibited”. The “behaviour of DMSO solution diluted in saline on intravenous infusion” value in data set [4] is reported as “precipitated”. In addition, the “pancreatic expression of IL-6, TNF-α, KC and iNOS” value in data set [5] (cerulein pancreatitis) and in data set [5] (ethanol/CCK pancreatitis) was “markedly inhibited; also recorded: attenuated” throughout. Moreover, on p38 MAP kinase, the “effect on p38 MAP kinase” value is reported as “no effect”. In addition, the “AP-1 activation in the pancreas” value with AP-1 [6] (cerulein pancreatitis) is reported as “markedly attenuated; also recorded: inhibited”; in the data set with AP-1 [6] (ethanol/CCK pancreatitis) it was “almost completely blocked; also recorded: inhibited”.
